Data: ChEMBL document CHEMBL1133104, “Polyether mimics of naturally occurring cytotoxic annonaceous acetogenins” (2000)

What was measured:
Format in all cases: functional, Homo sapiens
HL-60 [1] = assay: Compound at 10 uM was tested in vitro to inhibit proliferation of HL-60 leukemia cell line
HL-60 [2] = assay: Compound at 1 uM was tested in vitro to inhibit proliferation of HL-60 leukemia cell line
K562 [3] = assay: Compound at 10 uM was tested in vitro to inhibit proliferation of K562 leukemia cell line
K562 [4] = assay: Compound at 100 uM was tested in vitro to inhibit proliferation of K562 leukemia cell line
K562 [5] = assay: Compound at 1 uM was tested in vitro to inhibit proliferation of K562 leukemia cell line
HL-60 [6] = assay: Compound at 100 uM was tested in vitro to inhibit proliferation of HL-60 leukemia cell line

| Structure (SMILES) | IG (HL-60 [1]) | IG (HL-60 [2]) | IG (K562 [3]) | IG (K562 [4]) | IG (K562 [5]) | IG (HL-60 [6]) |
| --- | --- | --- | --- | --- | --- | --- |
| CCCCCCCCCCCC[C@@H](O)[C@H]1CCC([C@H](O)CCCCC(=O)CCCCCCCC2=C[C@H](C)OC2=O)O1 (stereo partly specified) | 29% | 0% | 16% | 53% | 2% | 68% |
| CCCCCCCCCCOCCOCCOCCOCCCCC(O)CCCCCCCC1=C[C@H](C)OC1=O (stereo partly specified) | 65% | 21% | 25% | 55% | 22% | 100% |
| CCCCCCCCCCCOCCOCCOCCCCC(O)CCCCCCCC1=C[C@H](C)OC1=O (stereo partly specified) | 50% | 0% | 18% | 31% | 0% | 100% |
| CCCCCCCCCCCC[C@@H](O)[C@H]1CCC([C@H](O)CCCCC(O)CCCCCCCC2=C[C@H](C)OC2=O)O1 (mixture of isomers) | 56% | 5% | 2% | 10% | 0% | 63% |
| CCCCCCCCCC[C@@H](O)[C@@H]1CC[C@@H]([C@@H]2CC[C@@H]([C@H](O)CCCCCCCCCC(O)CC3=CC(C)OC3=O)O2)O1 (stereo partly specified) [BULLATACIN] | 7% | 0% | 39% | 53% | 27% | 73% |
| CCCCCCCCCCCC[C@@H](O)[C@H]1CC[C@H]([C@H](O)CCCCCCCCCCCCC2=C[C@H](C)OC2=O)O1 [REL-SOLAMIN] | 8% | 0% | 39% | 59% | 29% | 24% |
